According to patent publication US20100314319A1, “HALOGENATED AMIDES AS BIOCIDES FOR BIOFILM CONTROL” (priority 2009, published 2010):
Read-outs that look alike come from different tables or passages of the source.

Tests used:
[1] = buffer
[2] = tested on: Biofilms of P. aeruginosa ATCC 10145; experiment: Biofilm removal evaluation (crystal violet, OD 580 nm); type: cell-based; settings: 25, 50, 100 ppm, 4 hr and 24 hr, 37° C.
Method: The Calgary biofilm device is used to prepare biofilms of P. aeruginosa ATCC 10145. TSB is used as the culture medium and biofilms are allowed to develop over a period of 42 hours. […] Concentrations of the actives tested are 25 ppm, 50 ppm, 100 ppm in sterile diluted salts solution as the test medium. The treatment is conducted at 37° C. for 4 hr and 24 hr, respectively. Sterile deionized water is used as an untreated control. After treatment, the pegs are washed with sterile 0.85% NaCl and then the biomass/biofilm on each peg is measured (see Stepanovic et al., Journal of Microbiological Methods, 2000, 40, 175-179). First the biofilm is fixed with 99% methanol and, after air drying, the pegs are stained with 2% (w/v) crystal violet and washed with tap water. The pegs are then air dried and the crystal violet bound to the biofilm is extracted with 33% glacial acetic acid. The optical density (OD) of the extracted solution is measured at 580 nm. The results are depicted in FIG. 2.

[3] = Stability against hydrolysis (HPLC level remaining in buffered dilute solutions)
[4] = tested on: Biofilms of P. aeruginosa ATCC 10145; experiment: Efficacy against biofilm associated bacteria (Calgary biofilm device, viable sessile bacteria); type: cell-based; settings: pH 8.5, 37° C.
Method: Biofilms of P. aeruginosa ATCC 10145 are grown in Calgary biofilm devices (Innovotech, Alberta, Canada) for 42 hours. Trypticase Soy Broth (TSB) is used in the biofilm devices as the culture medium. After the incubation period, loosely associated cells are removed from the biofilms that develop on the surfaces of the submerged pegs by rinsing with sterile 0.85% NaCl. The biofilms are than treated with DBMAL (inventive biocide), glutaraldehyde (comparative biocide), or DBNPA (comparative biocide). A dilute salts solution is used as the test medium for the efficacy studies. The salts solution contains (in grams per liter of deionized water) CaCl2, 0.2203 g; MgSO4, 0.1847 g; and NaHCO3, 0.2033 g. The final pH of the solution is adjusted to 8.5.
The concentrations of each active tested are 100 ppm, 50 ppm, 25 ppm, 12.5 ppm in the salts solution and the contact times are for 4 hours, 24 hours and 48 hours, respectively. In all cases, the incubation temperature is 37° C. Sterile deionized water is used as a non-biocide treated control. After each contact time, the pegs are washed with sterile 0.85% NaCl and the bacteria are released from the biofilm on the surface of each peg into sterile 0.85% NaCl by sonication (see Ceri et al., Journal of Clinical Microbiology 1999, 37: 1771-1776). The viable bacteria are then enumerated in TSB, using a serial dilution method.

[5] = tested on: amoeba fed Legionella pneumophila (AfLp); type: cell-based; settings: for Active concentration required for complete kill (6 log reduction): Amoeba fed Legionella
Free Legionella = type: cell-based, Legionella pneumophila

With `NC(=O)C(Br)(Br)C(N)=O` [DBMAL, 2,2-Dibromomalonamide] the “level remaining (HPLC)” value ([1]; 0 h, pH 6.9) was 3746, the “level remaining (HPLC)” value ([1]; 0 h, pH 8) was 3866 and the “level remaining (HPLC)” value ([1]; 0 h, pH 9) was 4576. For the same compound, the “level remaining (HPLC)” value ([1]; 2 h, pH 6.9) was 4612, the “level remaining (HPLC)” value ([1]; 2 h, pH 8) was 4031 and the “level remaining (HPLC)” value ([1]; 2 h, pH 9) was 4022. For the same compound, the “level remaining (HPLC)” value ([1]; 24 h, pH 6.9) was 3857, the “level remaining (HPLC)” value ([1]; 24 h, pH 8) was 4191 and the “level remaining (HPLC)” value ([1]; 24 h, pH 9) was 3891. The “level remaining (HPLC)” value ([1]; 48 h, pH 6.9) was 3935, the “level remaining (HPLC)” value ([1]; 48 h, pH 8) was 4187 and the “level remaining (HPLC)” value ([1]; 48 h, pH 9) was 3603. The “level remaining (HPLC)” value ([1]; 72 h, pH 6.9) was 3966, the “level remaining (HPLC)” value ([1]; 72 h, pH 8) was 4290 and the “level remaining (HPLC)” value ([1]; 72 h, pH 9) was 4018. For the same compound, the “level remaining (HPLC)” value ([1]; 96 h, pH 6.9) was 4212, the “level remaining (HPLC)” value ([1]; 96 h, pH 8) was 3883 and the “level remaining (HPLC)” value ([1]; 96 h, pH 9) was 3456. For the same compound, the biofilm removal [2] was “overall better biofilm removal than DBNPA”, the “Calculated Percent Reduction of the Active Ingredient” value (“Calculated Percent Reduction” for short) ([3]; pH 6.9, T = 30 C., 48 hours) was 0% and the “Calculated Percent Reduction” value ([3]; pH 6.9, T = 30 C., 72 hours) was 0%. For the same compound, the “Calculated Percent Reduction” value ([3]; pH 8, T = −1 C., 48 hours) was 0%, the “Calculated Percent Reduction” value ([3]; pH 8, T = −1 C., 72 hours) was 0% and the “Calculated Percent Reduction” value ([3]; pH 8, T = −1 C., 96 hours) was 0%. For the same compound, the “Calculated Percent Reduction” value ([3]; pH 9, T = −1 C., 48 hours) was 21%, the “Calculated Percent Reduction” value ([3]; pH 9, T = −1 C., 72 hours) was 12% and the “Calculated Percent Reduction” value ([3]; pH 9, T = −1 C., 96 hours) was 24%. For the same compound, the “effectiveness against sessile bacteria (reduction of viable sessile bacteria)” value ([4]; 12.5-100 ppm, 4, 24 and 48 hours, in general) was “more effective than DBNPA”, the “effectiveness against sessile bacteria (reduction of viable sessile bacteria)” value ([4]; 25 ppm active concentration, efficacy increases with contact time) was “very effective” and the “level needed for 6 log kill of AfLp relative to that needed for free cells” value ([5]; corresponding time points (2 and 24 hours)) was “about twice”.

For `N#CC(Br)(Br)C(N)=O` [DBNPA, 2,2-Dibromo-3-nitrilopropionamide], the “level remaining (HPLC)” value ([3]; pH 6.9, T = 30 C., 0 hours) was 3991, the “level remaining (HPLC)” value ([3]; pH 6.9, T = 30 C., 2 hours) was 4155 and the “level remaining (HPLC)” value ([3]; pH 6.9, T = 30 C., 24 hours) was 2557. For the same compound, the “level remaining (HPLC)” value ([3]; pH 6.9, T = 30 C., 48 hours) was 1361, the “level remaining (HPLC)” value ([3]; pH 6.9, T = 30 C., 72 hours) was 918 and the “level remaining (HPLC)” value ([3]; pH 6.9, T = 30 C., 96 hours) was 658. The “level remaining (HPLC)” value ([3]; pH 8, T = −1 C., 0 hours) was 4068, the “level remaining (HPLC)” value ([3]; pH 8, T = −1 C., 2 hours) was 3998 and the “level remaining (HPLC)” value ([3]; pH 8, T = −1 C., 24 hours) was 3506. For the same compound, the “level remaining (HPLC)” value ([3]; pH 8, T = −1 C., 48 hours) was 3578, the “level remaining (HPLC)” value ([3]; pH 8, T = −1 C., 72 hours) was 3149 and the “level remaining (HPLC)” value ([3]; pH 8, T = −1 C., 96 hours) was 3070. The “level remaining (HPLC)” value ([3]; pH 9, T = −1 C., 0 hours) was 3842, the “level remaining (HPLC)” value ([3]; pH 9, T = −1 C., 2 hours) was 2818 and the “level remaining (HPLC)” value ([3]; pH 9, T = −1 C., 24 hours) was 1256. For the same compound, the “level remaining (HPLC)” value ([3]; pH 9, T = −1 C., 48 hours) was 659, the “level remaining (HPLC)” value ([3]; pH 9, T = −1 C., 72 hours) was 363 and the “level remaining (HPLC)” value ([3]; pH 9, T = −1 C., 96 hours) was 239.

With `CCCCCCCCCC[N+](C)(C)CCCCCCCCCC.[Cl-]` [DDAC, didecyl dimethyl ammonium chloride] the “Active concentration required for complete kill (6 log reduction)” value (Free Legionella; 2 hours exposure) was 20 ppm, the “Active concentration required for complete kill (6 log reduction)” value (Free Legionella; 24 hours exposure) was 15 ppm and the “Active concentration required for complete kill (6 log reduction)” value ([5]; 2 hours exposure) was 60 ppm. The “Active concentration required for complete kill (6 log reduction)” value ([5]; 24 hours exposure) was 40 ppm.

For `O=CCCCC=O` [Glutaraldehyde], the “effectiveness against sessile bacteria (reduction of viable sessile bacteria)” value ([4]; 50 ppm active concentration, 48 h treatment) was “low effectiveness”, the “Active concentration required for complete kill (6 log reduction)” value (Free Legionella; 2 hours exposure) was 10 ppm and the “Active concentration required for complete kill (6 log reduction)” value (Free Legionella; 24 hours exposure) was 5 ppm. For the same compound, the “Active concentration required for complete kill (6 log reduction)” value ([5]; 2 hours exposure) was 20 ppm and the “Active concentration required for complete kill (6 log reduction)” value ([5]; 24 hours exposure) was 15 ppm.
